# Data reported in ChEMBL document CHEMBL1201862, “PubChem BioAssay data set” (2004).
#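 Each compound was tested at five concentrations against cells in 96-well plates for 48 hours. GI50 is the concentration that inhibits growth by half.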 Activity calls are given as the source filed them. No stated cut-off is given here; in the data, active = GI50 up to about 1.1 µM and inactive = higher.
# What was measured:
# Assay in all cases: NCI tumour cell line growth inhibition, 48 h
# Malme-3M = system: Malme-3M
# SK-OV-3 = system: SK-OV-3
# EKVX = system: EKVX
# SF-539 = system: SF-539
# SK-MEL-2 = system: SK-MEL-2
# RXF 393 = system: RXF 393
# OVCAR-5 = system: OVCAR-5
# OVCAR-4 = system: OVCAR-4
# HOP-92 = system: HOP-92
# MOLT-4 = system: MOLT-4
# KM12 = system: KM12
# SR = system: SR
# U-251 = system: U-251
# OVCAR-8 = system: OVCAR-8
# HCC 2998 = system: HCC 2998
# A498 = system: A498
# SK-MEL-28 = system: SK-MEL-28
# HOP-62 = system: HOP-62
# HCT-15 = system: HCT-15
# NCI-H460 = system: NCI-H460
SMILES,GI50 (Malme-3M),GI50 (SK-OV-3),GI50 (EKVX),GI50 (SF-539),GI50 (SK-MEL-2),GI50 (RXF 393),GI50 (OVCAR-5),GI50 (OVCAR-4),GI50 (HOP-92),GI50 (MOLT-4),GI50 (KM12),GI50 (SR),GI50 (U-251),GI50 (OVCAR-8),GI50 (HCC 2998),GI50 (A498),GI50 (SK-MEL-28),GI50 (HOP-62),GI50 (HCT-15),GI50 (NCI-H460)
CC1=C(/C=C/C(C)=C/C=C/C(C)=C/C=C/C=C(C)/C=C/C=C(C)/C=C/C2=C(C)C(=O)C(O)CC2(C)C)C(C)(C)CC(O)C1=O (stereo not given),> 100 µM (inactive),> 100 µM (inactive),> 100 µM (inactive),> 100 µM (inactive),> 100 µM (inactive),> 100 µM (inactive),> 100 µM (inactive),> 100 µM (inactive),> 100 µM (inactive),> 100 µM (inactive),> 100 µM (inactive),> 100 µM (inactive),> 100 µM (inactive),> 100 µM (inactive),> 100 µM (inactive),> 100 µM (inactive),> 100 µM (inactive),> 100 µM (inactive),> 100 µM,> 100 µM (inactive)
COc1cc2ccc(C(C)NCC#N)cc2cc1OC (stereo not given),> 100 µM (inactive),> 100 µM (inactive),> 100 µM (inactive),> 100 µM (inactive),> 100 µM (inactive),> 100 µM (inactive),> 100 µM (inactive),> 100 µM (inactive),> 100 µM (inactive),28.8 µM (inactive),> 100 µM (inactive),28.1 µM (inactive),> 100 µM (inactive),> 100 µM (inactive),36.4 µM (inactive),> 100 µM (inactive),> 100 µM (inactive),> 100 µM (inactive),> 100 µM,> 100 µM (inactive)
CN(C)C(=N/O)/C(=N\O)N(C)C,> 100 µM (inactive),> 100 µM (inactive),> 100 µM (inactive),> 100 µM (inactive),> 100 µM (inactive),> 100 µM (inactive),> 100 µM (inactive),> 100 µM (inactive),> 100 µM (inactive),> 100 µM (inactive),> 100 µM (inactive),> 100 µM (inactive),> 100 µM (inactive),> 100 µM (inactive),> 100 µM (inactive),> 100 µM (inactive),> 100 µM (inactive),> 100 µM (inactive),> 100 µM,> 100 µM (inactive)
O=C1C(Cl)=C(N2CCN(c3ncccn3)CC2)C(=O)c2c(O)ccc(O)c21,1.94 µM (inactive),24 µM (inactive),11.4 µM (inactive),1.97 µM (inactive),1.03 µM (active),1.78 µM (inactive),7.91 µM (inactive),1.98 µM (inactive),2.37 µM (inactive),0.697 µM (active),4.43 µM (inactive),0.265 µM (active),3.63 µM (inactive),2.18 µM (inactive),10.8 µM (inactive),2.9 µM (inactive),2.23 µM (inactive),2.55 µM (inactive),1.59 µM,15.3 µM (inactive)
COc1ccc(CC(C)N)cc1 (stereo not given) [PARA-METHOXYAMPHETAMINE],> 100 µM (inactive),> 100 µM (inactive),> 100 µM (inactive),> 100 µM (inactive),> 100 µM (inactive),> 100 µM (inactive),> 100 µM (inactive),> 100 µM (inactive),> 100 µM (inactive),> 100 µM (inactive),> 100 µM (inactive),> 100 µM (inactive),> 100 µM (inactive),> 100 µM (inactive),> 100 µM (inactive),> 100 µM (inactive),> 100 µM (inactive),> 100 µM (inactive),> 100 µM,> 100 µM (inactive)
Clc1ccccc1-c1nc(-c2ccncc2)no1 [PIFEXOLE],75.3 µM (inactive),> 100 µM (inactive),16.1 µM (inactive),> 100 µM (inactive),> 100 µM (inactive),29.3 µM (inactive),> 100 µM (inactive),59.8 µM (inactive),> 100 µM (inactive),26.8 µM (inactive),> 100 µM (inactive),18.5 µM (inactive),65.8 µM (inactive),90.6 µM (inactive),25.1 µM (inactive),37.6 µM (inactive),> 100 µM (inactive),> 100 µM (inactive),44.7 µM,58.7 µM (inactive)
O=c1ccc2[n+]([O-])c3ccc(O)cc3oc-2c1 [RESAZURIN],4.02 µM (inactive),66.5 µM (inactive),28.8 µM (inactive),15.9 µM (inactive),10 µM (inactive),37 µM (inactive),23.6 µM (inactive),23.4 µM (inactive),> 75.2 µM (inactive),13.7 µM (inactive),5.19 µM (inactive),15.3 µM (inactive),9.68 µM (inactive),15 µM (inactive),34.6 µM (inactive),39.2 µM (inactive),10.2 µM (inactive),18.7 µM (inactive),5.15 µM,12.3 µM (inactive)
